PubChem BioAssay AID858 (Vanderbilt High Throughput Screening Facility, 2007)
The source made the active and inactive calls.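 Rule for the calls: active = at least two of three replicate dose series yielding a converging curve fit, whether well or thinly supported; inactive = the rest.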

Target: D(1A) dopamine receptor (Homo sapiens) (UniProt P21728)
Experiment: concentration-dependent D1 reporter signal change – cell-based, CRE-luciferase, HEK293, dopamine EC30, D1 allosteric modulator project, dose response (AID 858);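 note: HEK 293 cells bearing human D1 receptor stimulated by dopamine at its EC30; luciferase light from a cAMP response element reporter gene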

Chain of D(1A) dopamine receptor (Homo sapiens) (P21728 whole entry, looked up): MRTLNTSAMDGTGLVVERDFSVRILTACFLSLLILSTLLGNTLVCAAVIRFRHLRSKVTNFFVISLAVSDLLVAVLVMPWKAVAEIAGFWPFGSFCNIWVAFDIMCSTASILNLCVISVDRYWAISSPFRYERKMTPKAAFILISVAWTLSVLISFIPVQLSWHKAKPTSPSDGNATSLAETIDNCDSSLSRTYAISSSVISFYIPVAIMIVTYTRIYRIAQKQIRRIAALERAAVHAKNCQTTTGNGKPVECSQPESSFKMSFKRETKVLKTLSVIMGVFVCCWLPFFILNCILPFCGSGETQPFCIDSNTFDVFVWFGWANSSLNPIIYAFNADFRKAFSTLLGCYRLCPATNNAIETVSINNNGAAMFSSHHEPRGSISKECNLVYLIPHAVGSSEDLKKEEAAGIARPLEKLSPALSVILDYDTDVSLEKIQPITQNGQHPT

Question: How did the outcome turn out when `COc1ccc(CCNS(=O)(=O)c2ccc3c(c2)OCCO3)cc1OC` was run?
Answer: Its outcome is “inactive”.

Question: With `CCCn1c(=NC(C)=O)c(C(=O)OCC)cc2c(=O)n3ccccc3nc21` as the compound, how does the outcome read?
Answer: Its outcome is “inactive”.

Question: How did the outcome turn out when `CCCCSc1nc2c(c(=O)n1CC)SC(C)C2` (centres undefined) was run?
Answer: Its outcome is “inactive”.

Question: `COc1cccc(-c2nn3c(-c4cc(C)[nH]n4)nnc3s2)c1` was tested. Which outcome did it give?
Answer: The outcome was “inactive”.

Question: How did the outcome turn out when `CCCSc1nsc(SCCC)c1C(N)=O` was run?
Answer: The outcome was “inactive”.

Question: `Cn1cccc1C1NC(=O)c2c(sc3c2CCC(C(C)(C)C)C3)N1` (centres undefined) was tested. Which outcome did it give?
Answer: Its outcome is “inactive”.

Question: For `CC(C)Cn1c(-c2cccs2)nc2nc3ccccc3nc21`, which outcome is on record?
Answer: Its outcome is “inactive”.

Question: For `CCOC(=O)c1c(-c2ccsc2)csc1N`, which outcome is on record?
Answer: Its outcome is “inactive”.

Question: With `CC(C)Oc1ccccc1C1CC(=O)Nc2cc3c(cc21)OCCO3` (centres undefined) as the compound, how does the outcome read?
Answer: Its outcome is “inactive”.

Question: With `COC(=O)c1c(-c2ccccc2)csc1NC(=O)c1ccco1` as the compound, how does the outcome read?
Answer: Its outcome is “inactive”.

Question: For `CCCOc1ccccc1NC(=O)c1ccc(N)cc1`, which outcome is on record?
Answer: Its outcome is “inactive”.

Question: How did the outcome turn out when `CSC1=NCCN1C(=O)Cc1cccs1` was run?
Answer: Its outcome is “inactive”.

Question: Which outcome does the source give for `CCCn1c2c(c(O)c(C(=O)NC)c1=O)CCCC2` here?
Answer: The outcome was “inactive”.

Question: How did the outcome turn out when `Nc1nc(CN2CCN(c3ccccn3)CC2)nc(Nc2ccc(Cl)cc2)n1` was run?
Answer: Its outcome is “inactive”.

Question: With `COc1ccc2[nH]c(=O)c(CN(Cc3cccs3)Cc3nnnn3C(C)(C)C)cc2c1` as the compound, how does the outcome read?
Answer: Its outcome is “inactive”.

Question: Which outcome does the source give for `COc1ccc2nc(SCC(=O)N3CCCCCC3)c(C#N)cc2c1` here?
Answer: Its outcome is “inactive”.

Question: For `N#Cc1nc(-c2ccc(F)cc2)oc1NCc1ccccc1`, which outcome is on record?
Answer: Its outcome is “inactive”.

Question: How did the outcome turn out when `CCC1(CC)C(=O)NC(=NCCc2c[nH]c3ccccc23)NC1=O` was run?
Answer: Its outcome is “inactive”.

Question: `CCn1nc(C(=O)NC2=NCCS2)c2ccccc2c1=O` was tested. Which outcome did it give?
Answer: The outcome was “inactive”.

Question: Which outcome does the source give for `CCn1c(SCC(=O)Nc2cc(C)on2)nc2c(c1=O)SC(C)C2` (centres undefined) here?
Answer: Its outcome is “inactive”.

Question: Which outcome does the source give for `c1ccc(C2=Nn3c(nnc3-c3ccncc3)SC2)cc1` here?
Answer: The outcome was “inactive”.

Question: How did the outcome turn out when `O=C(CSc1nc2ccccc2s1)NC(=O)NCc1ccco1` was run?
Answer: The outcome was “inactive”.

Question: With `Cc1ccc(S(=O)(=O)N2CCN(C(=O)COC(=O)c3cc(C)oc3C)CC2)cc1` as the compound, how does the outcome read?
Answer: Its outcome is “inactive”.

Question: `CCSc1cnc(-c2ccccc2)n1CC` was tested. Which outcome did it give?
Answer: The outcome was “inactive”.

Question: How did the outcome turn out when `O=C(OCCCCN1C(=O)c2ccccc2C1=O)c1n[nH]c2ccccc12` was run?
Answer: The outcome was “inactive”.

Question: For `CCOc1ccc(N/C(SC)=C(/C#N)C(N)=O)cc1`, which outcome is on record?
Answer: Its outcome is “inactive”.

Question: For `COc1ccc(CCNc2nnc(Sc3nnnn3-c3ccccc3)s2)cc1OC`, which outcome is on record?
Answer: Its outcome is “inactive”.

Question: How did the outcome turn out when `COc1ccc(CCN(C)C(=O)C2CCCN(Cc3ccc(OC)c(OC)c3)C2)cc1OC` (centres undefined) was run?
Answer: Its outcome is “inactive”.

Question: How did the outcome turn out when `O=C(c1ccco1)N1CCN(c2nc(C3CC3)nc3sc4c(c23)CCCC4)CC1` was run?
Answer: The outcome was “inactive”.

Question: Which outcome does the source give for `Cc1sc2ncnc(SCC(=O)N3CCCC3)c2c1C` here?
Answer: The outcome was “inactive”.

Question: For `CCOC(=O)N1CCC(NC(=O)c2cccc3c2C(=O)N(Cc2cccnc2)C3)CC1`, which outcome is on record?
Answer: Its outcome is “inactive”.

Question: Which outcome does the source give for `COc1ncnc2c1N=C1CC(C)(C)CC(N)=C1S2` here?
Answer: Its outcome is “inactive”.

Question: `CCc1ccc2[nH]c(=O)c(CN(Cc3nnnn3C3CCCC3)C3CCCCC3)cc2c1` was tested. Which outcome did it give?
Answer: The outcome was “inactive”.

Question: `N#CCSc1nc2c(sc(=S)n2Cc2ccco2)c(=O)n1-c1ccc(F)cc1` was tested. Which outcome did it give?
Answer: The outcome was “inactive”.

Question: With `CSc1ccccc1NC(=O)c1onc(C)c1Cl` as the compound, how does the outcome read?
Answer: Its outcome is “inactive”.

Question: With `Fc1ccc(-c2cc(C(F)(F)F)nc(-n3cncn3)n2)cc1` as the compound, how does the outcome read?
Answer: The outcome was “inactive”.

Question: `CC(C)OC(=O)CSc1nnc(-c2cnccn2)n1-c1ccccc1` was tested. Which outcome did it give?
Answer: The outcome was “inactive”.

Question: `COc1ccc(CCN2CCCn3c2nc2c3c(=O)n(Cc3ccccc3F)c(=O)n2C)cc1OC` was tested. Which outcome did it give?
Answer: The outcome was “inactive”.

Question: Which outcome does the source give for `Cc1cc(=O)oc2cc(OCC(=O)NCCc3nc4ccccc4[nH]3)ccc12` here?
Answer: The outcome was “inactive”.

Question: `CC(=O)N1CCC2(CC1)C(C#N)=C(N)Oc1c2sc2nc(C)cc(C)c12` was tested. Which outcome did it give?
Answer: Its outcome is “inactive”.

Question: With `COc1ccc(Cc2nnc(NC(=O)c3c(-c4ccccc4)noc3C)s2)cc1` as the compound, how does the outcome read?
Answer: The outcome was “inactive”.

Question: For `c1ccc2c(c1)nc(NCC1CCCO1)c1nnnn12` (centres undefined), which outcome is on record?
Answer: Its outcome is “inactive”.

Question: For `COc1ccc(C(=O)Nc2nnc(Cc3cccs3)s2)cc1OC`, which EC50 is on record?
Answer: Its EC50 is 0.313 µM.

Question: How did the EC50 turn out when `Cc1c(C(=O)OCC(C)C)[nH]c2c1C(=O)CC(c1ccco1)C2` (centres undefined) was run?
Answer: The EC50 was 1.57 µM.
